Patent US20260256790A1, “DEBIO-0123 IN COMBINATION WITH TEMOZOLOMIDE AND RADIOTHERAPY FOR USE IN TREATING GLIOMA” (Debiopharm International S.A., priority 2023, published 2026)
“And” between values parts separate entries of the source, which are not always exact repeats. Equal values may be shown once. Read-outs that look alike come from different tables or passages of the source.

How the values were obtained:
U87-MG-luc GBM cell line = test: U87-MG-luc tumors implanted subcutaneously in mice, monotherapy; type: in vivo; conditions: for Tumor volume vs vehicle controls at end of treatment: subcutaneous, 28 days
Experimental: Male athymic nude mice were injected A) subcutaneously (s.c.) or B) cerebrally (i.e.) with 1×10^5 U87-MG-luc cells in Matrigel. Animals implanted i.e. were imaged to monitor tumor establishment and growth throughout the study using an In Vivo Imaging System (IVIS) once weekly, detecting tumor bioluminescence (BLI) in photons. For animals implanted s.c., tumor growth was monitored twice weekly by caliper measurement and tumor volume calculated using the equation V=(L×W×W)/2, where V is tumor volume, L is tumor length (the longest tumor dimension) and W is tumor width (the longest tumor dimension perpendicular to L). Upon confirmation of tumor establishment, animals were randomly allocated into 3 (A, s.c.) or 2 (B, i.e.) treatment groups (n=8 animals per group) consisting of vehicle (0.5% methycellulose, 1% Tween 80 P.O. and saline I.V.) or Compound of formula (I) [CoF (I)] formulated as a suspension in 0.5% methycellulose and 1% Tween 80. The treatments were administered over a 28 day cycle and compound of formula (I) was administered orally at a dose of either 30 mg/kg (for both A and B) or 60 mg/kg (for A only), once daily (QD)). During routine monitoring, the animals were checked for any effects of tumor growth and treatments on behavior such as mobility, food and water consumption, body weight gain/loss 3 times a week, eye/hair matting and any other abnormalities. Mortality and observed clinical signs were recorded for individual animals in detail.

[1] = Drug concentration in monkey brain and plasma after daily oral administration for 91 days; type: in vivo, cynomolgus monkeys; conditions: 10 mg/kg oral once a day for 91 days; for Kp at 24 h / concentration at 24 h: female, cynomolgus monkey, 10 mg/kg; for Kp at 24 h: brain (left forebrain) / plasma, po; for concentration at 24 h: oral
Experimental: Compound of formula (I) was orally given to 3 female cynomolgus monkeys by gavage once a day for 91 days. The volume of administration was 5 mL/kg, and the vehicle was an aqueous solution of 0.5% (w/v) methylcellulose (cps 400) and 1% (w/v) Tween 80. The Compound of formula (I) dose was 10 mg/kg; this dose level was assessed in this study to be the […] no adverse effect level (NOAEL) based on general toxicology evaluation. The animals were necropsied 24 hours after the last dose after an overnight period without food. A sample from brain tissue (left forebrain) was collected from each animal, snap frozen in liquid nitrogen. and stored frozen at <−50° C. Blood samples were taken from the femoral vein into tubes containing K2EDTA, fully inverted approximately 10 times, and placed on crushed wet ice until centrifugation at 2300 g for 10 minutes at approximately 4° C. The resultant plasma was separated, transferred into polypropylene tubes, and frozen at <−50° C. Tissue and plasma samples were transported frozen on dry ice to the respective sites of analysis.
The monkey plasma samples were analyzed for their contents in Compound of formula (I) and N^32-desmethyl-Compound of formula (I) as follows. The plasma samples were fortified in human K2-EDTA plasma (1:9 monkey:human volume ratio) prior to extraction. All solution preparations and dilutions were conducted under sodium vapor light and in “low-binding” quality polypropylene tubes and deep-well plates. The analytes and internal standards (^13CD6-Compound of formula (I) and D7-N^32-desmethyl-Compound of formula (I)) were extracted by protein precipitation with 5M aqueous urea (40 μL for 50 μL plasma), and then analyzed by LC-MS/MS. Chromatographic separation was achieved on an Synergi Polar-RP, 80A, 4 μm 75×2.00 mm column (Phenomenex) with gradient elution using a mixture of 0.1% formic acid in water as eluent A and 0.1% formic acid in acetonitrile as eluent B (5% B from 0 to 0.50 min, 42% B at 4.5 min, 95% B from 4.60 min to 5.50 min, 5% B at 5.60 min, 100% B at 5.70 min, 5% B at 6.40 min, 100% B at 6.50 min, 5% B at 7.00 min; 800 μl/min, 70° C.). Detection was accomplished with a AB Sciex 6500+ mass spectrometer utilizing electrospray MS/MS in positive ion multiple reaction monitoring mode (MRM). The lower limits of quantification for Compound of formula (I) and N^32-desmethyl-Compound of formula (I) were 5.00 ng/mL and 2.50 ng/mL, respectively.
The monkey brain tissue samples were analyzed for their contents in Compound of formula (I) and N^32-desmethyl-Compound of formula (I) as follows. Tissue samples were homogenized in human plasma (1 mg tissue for 10 μL plasma) at +4° C. using a Precelly Evolution system. The analytes (Compound of formula (I) and N^32-desmethyl-Compound of formula (I)) were extracted by protein precipitation with methanol/acetonitrile (9:1, v:v) containing the internal standards (^13CD6-Compound of formula (I) and D7-N^32-desmethyl-Compound of formula (I)) and then analyzed by UHPLC-MS/MS. Chromatographic separation was achieved on a HSS T3 1.8 μm, 2.1×100 mme column (Waters) with gradient elution using a mixture of 0.1% formic acid in water as eluent A, and 0.1% formic acid in acetonitrile as eluent B (20% B from 0 to 0.50 min, 90% B from 1.80 min to 2.30 min, 20% B at 2.60 min; 0.6 mL/min, room temperature). Detection was accomplished with Xevo TQ-S mass spectrometer (Waters) utilizing electrospray MS/MS in positive ion multiple reaction monitoring mode (MRM). The lower limits of quantification for Compound of formula (I) and N^32-desmethyl-Compound of formula (I) were 55.00 ng/g tissue and 22.00 ng/g tissue, respectively.

## Cc1cc(Nc2ncc3c(n2)N(C)CN(c2c(Cl)cccc2Cl)C3=O)ccc1C1CCN(C)CC1 [Compound of formula (I)]
U87-MG-luc GBM cell line; all dose levels (30 or 60 mg/kg QD, 28 days), s.c. and cerebral models
  Body weight loss / tolerability: No significant body weight loss
U87-MG-luc GBM cell line; 30 mg/kg oral QD, p=0.0009 on day 28
  Tumor volume vs vehicle controls at end of treatment: significantly smaller tumors than vehicle controls
U87-MG-luc GBM cell line; 60 mg/kg oral QD, p<0.0001 on day 28
  Tumor volume vs vehicle controls at end of treatment: significantly smaller tumors than vehicle controls
[1]; individual animals
  Brain:plasma concentration ratio, at 24 h post last dose: 4.18 and 4.57
  Plasma concentration at 24 h post last dose: 929 ng/mL and 632 ng/mL
[1]; left forebrain, individual animals
  Brain concentration at 24 h post last dose: 3885 ng/g tissue and 2886 ng/g tissue
[1]; individual animals, read-out: Brain:plasma concentration ratio, at 24 h post last dose
  Kp at 24 h: 4.2
[1]; read-out: Mean brain:plasma ratio (±SD), at 24 h post last dose (n = 3)
  Kp at 24 h: 4.32 ± 0.22
[1]; brain (left forebrain), left forebrain, individual animals, read-out: Brain concentration at 24 h post last dose
  concentration at 24 h: 4790 ng/g
[1]; plasma, individual animals, read-out: Plasma concentration at 24 h post last dose
  concentration at 24 h: 1140 ng/mL
